Data taken from publication PMC8658773, “Two New Isoprenoid Flavonoids from Sophora flavescens with Antioxidant and Cytotoxic Activities” (Molecules, 2021).

Experiments:
[1] = test system: HepG2 cells; test: Cytotoxic activity (MTS assay), HepG2; assay type: cell-based, human; details: Homo sapiens, HepG2, 10 µM; SD in brackets; read-out: HepG2 cell inhibitory activity (Table S4)
[2] = test system: A549 cells; test: Cytotoxic activity (MTS assay), A549; assay type: cell-based, human; details: Homo sapiens, A549; 10 µM; SD in brackets; read-out: A549 cell inhibitory activity (Table S5)
[3] = test system: LO2 cells; test: Cytotoxic activity (MTS assay), LO2 normal cells; assay type: cell-based, human; details: Homo sapiens, L02; 10 µM; SD in brackets; read-out: LO2 cell inhibitory activity (Table S7)
[4] = PTIO free radical scavenging assay; assay type: biochemical; details: for PTIO radical scavenging activity (inhibition rate): 8 μg/mL, SD in brackets
Method: PTIO free radical scavenging was also performed following previous reports with some modification. VC was used as the positive control. PTIO radicals were dissolved with phosphate buffer (PBS) (pH 7.4, 50 mM) with a concentration of 0.05 mg/mL. Then, the samples (40 µL, 40 µg/mL) and PTIO solution (160 µL) were added into 96-well plates (as the value of Ai). After being thoroughly mixed, the reaction solution was incubated at 37 °C in a water-bath for 2 h. Then, the absorbance was measured at 557 nm. PTIO free radical scavenging was calculated using the above equation. (40 µL PBS with 160 µL PTIO as A0, 40 µL compounds with 160 µL PBS as Aj).

[5] = ABTS free radical scavenging assay; assay type: biochemical; details: for ABTS radical scavenging activity (inhibition rate): 20 μg/mL, SD in brackets
Method: The third assay, the ABTS free radical scavenging screen was performed by previous experiments with slight changes. First, we needed to prepare for the ABTS^+ solution. […] Then, they were mixed with equal volume at room temperature and kept away from light for 12 h, the mixed solution was diluted with ethanol until the absorbance of […]. Thus, the ABTS^+ solution was obtained. Furthermore, the compounds (100 µL, 40 µg/mL) with ABTS^+ solution (100 µL) were also added to the 96-well plates (as the value of Ai) and were interacted for 10 min at room temperature in the dark, then the absorbance at 734 nm was measured. VC was used as the positive control. Antioxidant capacity was calculated according to the first formula (the value of 100 µL ethanol with 100 µL ABTS^+ solution as A0, the value of 100 µL compounds with 100 µL ethanol as Aj). All experiments were carried out in triplicate.

[6] = DPPH free radical scavenging assay; assay type: biochemical; details: for DPPH radical scavenging activity (inhibition rate): 20 μg/mL, SD in brackets
Method: The in vitro antioxidant activity tests were conducted according to previous reports. Among them, the DPPH free radical scavenging assay was slightly modified. Briefly, the DPPH material was precisely weighed, ethanol solution was added to obtain a concentration of 0.1 mmol/L (to use immediately, or store in the dark). Then, the compounds (100 µL, 40 µg/mL) with DPPH solution (100 µL) (Ai) were added to 96-well plates and incubated for 30 min at room temperature. Subsequently, the activity was measured using the Thermo Scientific Varioskan LUX ([…], VL0L00D0, USA), with an absorbance of 570 nm. Vitamin C (VC) (40 µg/mL) was used as the positive control.

[7] = test system: MCF7 cells; test: Cytotoxic activity (MTS assay), MCF7; assay type: cell-based, human; details: Homo sapiens, MCF7; 10 µM; SD in brackets; read-out: MCF-7 cell inhibitory activity (Table S6)

SMILES | inhibition at 10 µM [1] | inhibition at 10 µM [2] | inhibition at 10 µM [3] | PTIO radical scavenging IC50 [4] | PTIO radical scavenging activity (inhibition rate) [4] | ABTS radical scavenging IC50 [5] | DPPH radical scavenging IC50 [6] | inhibition at 10 µM [7] | ABTS radical scavenging activity (inhibition rate) [5] | DPPH radical scavenging activity (inhibition rate) [6]
O=c1c(O)c(-c2ccc(O)c(O)c2)oc2cc(O)cc(O)c12 [Compound 16, quercetin] | 4.6% | 12.1% | 9.8% | 4.71 mg/L | 62.0% (2.2%) | 0.90 mg/L | 1.11 mg/L | 11.9% |  | 
O=C(O)c1ccc(O)cc1O [Compound 27, b-resorcylic acid] | 1.9% | 22.8% | 1.9% |  |  |  |  | 14.1% | 63.4% (1.4%) | 23.1% (2.5%)
O=c1ccc2ccc(O)cc2o1 [Compound 24, 7-hydroxycoumarin] |  | 21.4% | -0.3% |  | 36.6% (3.1%) |  |  | 5.7% | 16.8% (3.2%) | 25.2% (3.7%)
CC(C)=CCc1c(O)cc(O)c2c(=O)c(O)c(-c3ccc(O)cc3)oc12 [Compound 15, noranhyoicaritin] | 8.8% | 13.4% | 7.7% | 2.70 mg/L | 68.0% (8.1%) | 1.91 mg/L | 2.42 mg/L | 5.8% |  | 
O=C1C[C@@H](c2ccc(O)cc2)Oc2cc(O)cc(O)c21 [Compound 11, naringenin] | 3.6% | 14.7% | 5.8% |  | 37.8% (2.2%) |  |  | 0.7% | 55.4% (2.2%) | 24.5% (3.9%)
COc1ccc(-c2coc3cc(O)ccc3c2=O)cc1 [Compound 20, formononetin] | 1.4% | -6.2% | 5.8% |  | 36.2% (2.0%) |  |  | 8.7% | 23.3% (0.9%) | 20.2% (1.0%)
COc1cc(O)c(CC=C(C)C)c2oc(-c3ccc(O)cc3)c(O)c(=O)c12 [Compound 14, sophoflavescenol] | 11.4% | 6.9% | 5.5% | 5.51 mg/L | 55.0% (9.4%) | 2.91 mg/L | 3.52 mg/L | 2.8% |  | 
O=c1cc(-c2ccc(O)cc2)oc2cccc(O)c12 [Compound 22, 5,4′-dihydroxyflavone] | 0.6% | 29.7% | -4.6% |  | 39.4% (1.0%) |  |  | 9% | 76.3% (4.7%) | 34.6% (3.4%)
COc1cc(O)c2c(=O)c(-c3ccc(O)c(OC)c3)coc2c1 [Compound 17, 7,3′-di-O-methyl] | 8.7% | 40.9% | 1.1% |  | 38.9% (2.4%) | 2.91 mg/L |  | 5.3% |  | 42.0% (1.4%)
CC(C)=CCc1c(O)cc(O)c2c1OC(c1ccc(O)cc1)CC2=O (stereo not shown) [Compound 10, sophoraflavanone B] | 9.3% | 8% | 4.7% |  | 38.6% (1.3%) |  |  | 7.7% | 88.0% (2.1%) | 32.2% (1.9%)
C=C(C)[C@H](CCC(C)(C)O)Cc1c(O)cc(OC)c2c1O[C@H](c1ccc(O)cc1O)CC2=O [Compound 12, kurarinol] | 0.9% | 37% | 11.4% |  | 37.5% (1.7%) | 1.31 mg/L |  | 4.8% |  | 30.8% (1.9%)
O=C(/C=C/c1ccc(O)cc1)c1ccc(O)cc1O [Compound 8, isoliquiritigenin] | 1.7% | -5.7% | -2.1% |  |  |  |  | 7.2% |  | 
O=c1ccc2ccc(O)c(O)c2o1 [Compound 25, 7,8-dihydroxycoumarin] | 8.5% | 32.4% | 8.6% |  | 46.3% (4.8%) |  | 0.80 mg/L | 4.8% | 97.8% (1.8%) | 
O=c1c(-c2ccc(O)cc2)coc2cc(O)cc(O)c12 [Compound 18, genistein] | 1% | 6.6% | 5% |  | 35.8% (2.0%) |  |  | 4.3% | 69.0% (1.4%) | 28.0% (6.2%)
O=C1O[C@H]([C@@H](O)CO)C(O)=C1O [VC, vitamin C, reference compound] |  |  |  |  |  |  |  |  |  | 97%
COc1ccc(-c2coc3cc(O)cc(O)c3c2=O)cc1 [Compound 21, biochanin A] | 7.1% | 8.7% | 5.8% |  | 37.9% (0.6%) |  |  | 1% | 76.4% (1.3%) | 46.8% (1.8%)
COc1cc(O)c(CC=C(C)C)c(O)c1C(=O)/C=C/c1ccc(O)cc1 [Compound 7, xanthohumol] | 10.4% | 16.4% | 13.9% |  | 40.3% (1.4%) |  |  | 11.7% | 87.9% (2.0%) | 34.7% (1.9%)
CC(C)=CCC(Cc1c(O)cc(O)c2c1OC(c1ccc(O)cc1O)CC2=O)C(C)CO (stereo not shown) [Compound 9, kushenol Q] | 3.5% | -10.9% | 5.3% |  | 36.7% (0.8%) | 3.72 mg/L |  | 4.5% |  | 30.4% (5.4%)
C=C(C)[C@H](CC=C(C)C)Cc1c(O)cc(OC)c(C(=O)/C=C/c2ccc(O)cc2O)c1O [Compound 6, kuraridine] | 0.9% | 2% | -0.2% |  | 40.6% (2.2%) | 3.52 mg/L |  | 15% |  | 41.9% (5.6%)
O=c1cc(-c2ccc(O)c(O)c2)oc2cc(O)cc(O)c12 [Compound 23, luteolin] | 1.1% | 41.3% | 19.8% |  | 43.3% (2.0%) | 1.51 mg/L | 0.90 mg/L | -4.7% |  | 
COc1ccc(-c2coc3cc(O)ccc3c2=O)cc1O [Compound 19, calycosin] | 4.3% | 6.4% | 16.6% |  | 37.0% (0.7%) |  |  |  | 51.3% (2.4%) | 25.6% (1.1%)
C=C(C)C(CCC(C)(C)O)Cc1cc(O)c(C(=O)/C=C/c2ccc(O)cc2O)c(OC)c1O (stereo not shown) [Compound 5, kuraridinol] | 5.6% | -0.2% | -7.2% |  | 37.7% (1.8%) |  |  | 7.4% | 75.7% (1.5%) | 29.1% (8.7%)
